Experimental data as given in patent US20240059693A1, “FUSED BICYCLIC PYRAZOLE DERIVATIVES AND METHODS OF USE THEREOF FOR THE TREATMENT OF HERPESVIRUSES” (Merck Sharp & Dohme LLC, priority 2020, published 2024).
Like-named read-outs stand apart in the source and are kept apart here.

Experiments:
[1] = molecular target: T1, varicella zoster virus DNA polymerase (Varicella-zoster virus, UniProt P09252); assay: VZV polymerase assay (AlphaLISA); assay type: biochemical; details: VZV DNA polymerase 0.4 nM, 60 minutes at 37° C.
T1 construct: made in house; host or cells: SF21 insect cells (baculovirus vector)
How it was run: (§1)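 Baculovirus/SF21-expressed polymerase (HCMV 0.2 nM; VZV 0.4 nM) pre-incubated 30 min at room temperature with compound in HEPES pH 7.5 buffer, then 60 min at 37 °C with 1.6 nM DIG-primer/template, sub-nM to 24 nM dNTPs and 0.8 nM biotin-dUTP. AlphaLISA detection; IC50 from 4-parameter fit.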

HSV-1 Strain F [2] = assay: Viral qPCR assay, HSV-1 in MRC5 cells; assay type: cell-based, Herpes Simplex Virus type 1; details: read-out: HSV1 MRC5 Cell (EC50)
How it was run: (§2)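 MRC5, MeWo (VZV Street strain, 0.04-0.1 pfu/cell) or Vero/MRC5 (HSV-1 Strain F, 0.0005-0.004 pfu/cell) cells infected in suspension and added to 10-point 3-fold compound dilutions; ~72 h at 37 °C. Lysates qPCR-quantified for viral genome copies against plasmid standard curve, in one format normalized to cellular PPIA; 4-parameter fit gives EC50.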

VZV [3] = assay: Viral qPCR assay, VZV in MRC5 cells; assay type: cell-based, varicella zoster virus; details: read-out: VZV MRC5 Cell (IC50)
How it was run: as §2

HCMV Strain AD169 = assay: Viral qPCR assay, HCMV in MRC-5 cells; assay type: cell-based, Human cytomegalovirus; details: read-out: CMV MRC5 Cell (EC50)
How it was run: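 MRC-5 cells infected in suspension with HCMV AD169 (0.05-0.1 pfu/cell) and added to 10-point 3-fold compound dilutions, in growth media or media with 50% FBS. After ~72 h at 37 °C, lysates analysed by TaqMan qPCR against a plasmid standard curve, viral copies normalised to PPIA or not. EC50 from 4-parameter fit.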

HSV2 [4] = assay: Viral qPCR assay, HSV2 in Vero cells; assay type: cell-based, Herpes Simplex Virus type 2; details: read-out: HSV2 VERO Cell (EC50)
Experimental: (§3) MRCS cells, Vero cells, and MeWo cells were obtained from ATCC and were maintained at 37° C./5% CO2/90% relative humidity in Minimal Essential Medium with 10% fetal bovine serum, […] L-glutamine, 100 units/ml penicillin and 100 ug/ml streptomycin. Assay plates were prepared by dispensing compounds dissolved in DMSO into wells of 384 well collagen-coated plates using an ECHO acoustic dispenser. Each compound was tested in a 10-point, serial 3-fold dilution. Controls included uninfected cells and infected cells treated only with DMSO. Assays were initiated by mixing selected cells, in suspension, with virus, and dispensing 50 μl/well infected cells to pre-plated compounds. Plates were incubated at 37° C./5% CO2/90% relative humidity for ˜72 hrs to permit genomic replication, and infected cells were lysed by the addition of an equal volume of lysis buffer (10 mM Tris-HCl, pH8, 50 mM KCl, 2 mM MgCl2, 0.45% NP-40, 0.45% Tween-20, and 100 μg/ml proteinase K). An aliquot of the lysate was transferred to a 384-well PCR plate and incubated at 56° C. for 1 hour and then at 95° C. for 10 min. Levels of a viral gene and of the cellular control, PPIA (Thermo Fisher Assay ID=Hs04194521_s1), were measured in separate 10 μL qPCR assays using TaqMan® Gene Expression Master Mix (Applied Biosystems), and an 7900HT Fast Real-Time PCR System with 384-Well Block Module. 7-point, serial 10-fold dilutions of a plasmid standard were run on each plate to generate a standard curve, and genome copies numbers were calculated by plotting experimental Ct onto linear regression of the standard curve. Viral genome copy numbers were normalized by cellular control copy number, and compound effects were normalized to the window defined by the controls. Calculated % effects were fit using a 4-parameter algorithm, and EC50 was reported.
as §3, with “gene” for “gene and of the cellular control, PPIA (Thermo Fisher Assay ID=Hs04194521_s1),”, “in” for “in separate”, “Compound effects on viral” for “Viral”, “number” for “numbers were normalized by cellular control copy number, and compound effects”

HSV-1 Strain F [5] = assay: Viral qPCR assay, HSV-1 in Vero cells; assay type: cell-based, Herpes Simplex Virus type 1; details: read-out: HSV1 VERO Cell (EC50)
Experimental: as §3
as §3, with “gene” for “gene and of the cellular control, PPIA (Thermo Fisher Assay ID=Hs04194521_s1),”, “in” for “in separate”, “Compound effects on viral” for “Viral”, “number” for “numbers were normalized by cellular control copy number, and compound effects”
(§4) VZV: Strain Street was maintained as an infected cell stock in MRC-5 cells. It was assayed in MeWo or MRCS cells and was used at 0.04-0.1 pfu/cell. The assays were performed in growth medium. Primer-probe set was Thermo Fisher Assay ID=AIPAEXQ. HSV-1: Strain F Street was assayed in Vero or MRCS cells and was used at 0.0005-0.004 pfu/cell in growth medium. Primer-probe set was Thermo Fisher Assay ID=AIBJZIB

HSV2 [6] = assay: Viral qPCR assay, HSV2 in MRC5 cells; assay type: cell-based, Herpes Simplex Virus type 2; details: read-out: HSV2 MRC5 Cell (EC50)
How it was run: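 Vero or MRC5 cells infected in suspension with HSV2 and added to a 10-point 3-fold compound dilution, then ~72 h at 37 °C. Lysates assayed by TaqMan qPCR against a plasmid standard curve; copies normalized to controls (with PPIA in one format) and EC50 from 4-parameter fit.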

VZV [7] = assay: Viral qPCR assay, VZV in MeWo cells; assay type: cell-based, varicella zoster virus; details: read-out: VZV MEWO Cell (IC50)
Experimental: as §3
as §3, with “gene” for “gene and of the cellular control, PPIA (Thermo Fisher Assay ID=Hs04194521_s1),”, “in” for “in separate”, “Compound effects on viral” for “Viral”, “number” for “numbers were normalized by cellular control copy number, and compound effects”
as §4

[8] = molecular target: T2, Human cytomegalovirus DNA polymerase (Human cytomegalovirus, UniProt P08546); assay: HCMV polymerase assay (AlphaLISA); assay type: biochemical; details: HCMV DNA polymerase 0.2 nM, 60 minutes at 37° C.; read-out: CMV (IC50)
T2 construct: made in house; host or cells: SF21 insect cells (baculovirus vector)
How it was run: as §1

[9] = Human betaherpesvirus 5, AD169, MRC5, 72 h
[10] = Human alphaherpesvirus 2, Vero, 72 h
[11] = Human alphaherpesvirus 1, Vero, 72 h
[12] = Human alphaherpesvirus 3, ~72 hrs
[13] = Human alphaherpesvirus 1, MRC5, 72 h
[14] = Human alphaherpesvirus 3, MRC5, 72 h
[15] = Human alphaherpesvirus 2, MRC5, 72 h

T1 sequence (P09252 whole entry): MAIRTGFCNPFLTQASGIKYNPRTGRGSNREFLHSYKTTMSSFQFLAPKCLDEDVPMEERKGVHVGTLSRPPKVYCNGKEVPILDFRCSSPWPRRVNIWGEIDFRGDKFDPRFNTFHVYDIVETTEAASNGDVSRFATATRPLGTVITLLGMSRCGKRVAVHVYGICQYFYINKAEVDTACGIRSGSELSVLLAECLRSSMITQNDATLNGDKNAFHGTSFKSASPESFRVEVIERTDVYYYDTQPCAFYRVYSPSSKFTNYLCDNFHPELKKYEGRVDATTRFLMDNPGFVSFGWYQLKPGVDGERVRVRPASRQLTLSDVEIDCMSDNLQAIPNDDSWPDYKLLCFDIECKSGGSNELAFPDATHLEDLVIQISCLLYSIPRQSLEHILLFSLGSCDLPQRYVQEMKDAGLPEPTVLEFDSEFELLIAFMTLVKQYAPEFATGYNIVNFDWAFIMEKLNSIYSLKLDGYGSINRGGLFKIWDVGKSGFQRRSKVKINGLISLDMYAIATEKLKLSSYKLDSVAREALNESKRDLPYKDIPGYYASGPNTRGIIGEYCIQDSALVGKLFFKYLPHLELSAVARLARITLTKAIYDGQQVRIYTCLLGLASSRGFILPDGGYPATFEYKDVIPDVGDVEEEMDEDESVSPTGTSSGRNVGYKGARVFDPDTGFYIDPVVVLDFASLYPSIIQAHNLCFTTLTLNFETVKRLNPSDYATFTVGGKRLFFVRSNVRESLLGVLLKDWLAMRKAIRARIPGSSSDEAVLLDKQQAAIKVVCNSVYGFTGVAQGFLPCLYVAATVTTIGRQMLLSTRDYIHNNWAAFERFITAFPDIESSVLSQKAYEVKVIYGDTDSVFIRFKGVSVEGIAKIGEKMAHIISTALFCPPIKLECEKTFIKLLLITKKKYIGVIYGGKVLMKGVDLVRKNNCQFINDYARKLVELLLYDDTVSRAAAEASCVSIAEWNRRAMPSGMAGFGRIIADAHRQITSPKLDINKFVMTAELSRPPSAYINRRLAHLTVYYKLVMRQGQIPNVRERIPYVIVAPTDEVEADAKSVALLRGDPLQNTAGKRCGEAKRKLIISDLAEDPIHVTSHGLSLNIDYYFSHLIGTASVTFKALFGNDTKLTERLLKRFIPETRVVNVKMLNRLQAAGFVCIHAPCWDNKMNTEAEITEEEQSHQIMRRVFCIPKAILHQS
T2 sequence (P08546 whole entry): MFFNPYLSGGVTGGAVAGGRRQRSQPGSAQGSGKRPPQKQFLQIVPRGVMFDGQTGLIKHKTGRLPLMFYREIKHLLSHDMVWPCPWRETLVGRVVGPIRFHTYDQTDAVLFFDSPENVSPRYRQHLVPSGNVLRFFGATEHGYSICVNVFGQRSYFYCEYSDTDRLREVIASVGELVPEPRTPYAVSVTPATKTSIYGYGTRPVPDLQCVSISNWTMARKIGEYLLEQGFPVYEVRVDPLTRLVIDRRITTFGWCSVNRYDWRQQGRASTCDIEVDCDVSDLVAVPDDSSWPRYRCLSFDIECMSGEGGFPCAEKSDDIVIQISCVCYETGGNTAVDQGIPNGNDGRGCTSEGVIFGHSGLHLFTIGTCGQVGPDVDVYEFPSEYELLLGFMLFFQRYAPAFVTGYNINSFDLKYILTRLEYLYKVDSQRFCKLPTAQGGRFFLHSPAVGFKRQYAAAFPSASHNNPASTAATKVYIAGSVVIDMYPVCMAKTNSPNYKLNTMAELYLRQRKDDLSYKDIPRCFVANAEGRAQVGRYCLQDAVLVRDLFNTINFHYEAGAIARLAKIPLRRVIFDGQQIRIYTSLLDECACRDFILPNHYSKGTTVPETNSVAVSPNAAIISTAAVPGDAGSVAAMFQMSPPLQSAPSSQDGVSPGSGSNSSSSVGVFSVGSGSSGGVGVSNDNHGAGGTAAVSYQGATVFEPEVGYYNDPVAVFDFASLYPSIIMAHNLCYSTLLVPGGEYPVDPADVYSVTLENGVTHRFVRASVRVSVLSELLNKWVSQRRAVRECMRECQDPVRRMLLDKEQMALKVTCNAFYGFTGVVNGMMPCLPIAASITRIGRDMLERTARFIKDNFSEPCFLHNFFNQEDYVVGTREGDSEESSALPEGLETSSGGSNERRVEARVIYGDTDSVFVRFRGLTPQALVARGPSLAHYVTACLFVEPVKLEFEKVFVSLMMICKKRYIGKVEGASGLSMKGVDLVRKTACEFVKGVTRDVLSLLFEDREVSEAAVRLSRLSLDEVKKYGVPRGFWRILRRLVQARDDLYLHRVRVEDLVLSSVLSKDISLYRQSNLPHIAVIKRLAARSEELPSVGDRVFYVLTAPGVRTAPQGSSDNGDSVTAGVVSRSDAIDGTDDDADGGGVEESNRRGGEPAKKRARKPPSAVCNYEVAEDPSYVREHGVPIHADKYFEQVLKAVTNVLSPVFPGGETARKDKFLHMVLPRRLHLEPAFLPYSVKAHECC

| IC50 [1] [µM] | EC50 (HSV2 [4]; ~72 hrs) [µM] | EC50 (HSV-1 Strain F [5]; ~72 hrs) [µM] | IC50 (VZV [7]; ~72 hrs) [µM] | IC50 [8] [µM] | EC50 (HSV2 [4]; [10]) [µM] | EC50 (HSV-1 Strain F [5]; [11]) [µM] | IC50 (VZV [7]; [12]) [µM] | Compound | EC50 (HSV-1 Strain F [2]; ~72 hrs) [µM] | IC50 (VZV [3]; ~72 hrs) [µM] | EC50 (HCMV Strain AD169; MRC5 cells, ~72 hrs) [µM] | EC50 (HSV2 [6]; ~72 hrs) [µM] | EC50 (HCMV Strain AD169; [9]) [µM] | EC50 (HSV-1 Strain F [2]; [13]) [µM] | IC50 (VZV [3]; [14]) [µM] | EC50 (HSV2 [6]; [15]) [µM] |
| --- | --- | --- | --- | --- | --- | --- | --- | --- | --- | --- | --- | --- | --- | --- | --- | --- |
| 0.00345 |  |  |  | 0.00875 | 56.9 | 33.3 | 0.343 | CN(CCn1nc(C(=O)NCc2ccc(Cl)cc2)c2c1CN(C[C@H]1CCC(=O)N1)C2)C(=O)C1CCC1 [Compound 3] |  |  |  |  | 1.26 |  |  |  |
| 0.0115 |  |  |  | 0.0113 | 99 | 99 | 0.484 | CC(C)C(=O)NCCn1nc(C(=O)NCc2ccc(Cl)cc2)c2c1CN(C[C@H]1CCC(=O)N1)C2 [Compound 25] |  |  |  |  | 0.97 | 17.4 | 29 | 16.4 |
| 0.0189 |  |  |  | 0.12 | 0.712 | 0.536 | 0.602 | CC(C)(O)Cn1nc(C(=O)NCc2ccc(Cl)cc2)c2c1CN(C[C@H]1CCC(=O)N1)C2 [Compound 58] |  |  |  |  | 1.23 |  |  |  |

More lines, now with the values behind:

| Compound | IC50 [1] [µM] | EC50 (HSV2 [4]; ~72 hrs) [µM] | EC50 (HSV-1 Strain F [5]; ~72 hrs) [µM] | IC50 (VZV [7]; ~72 hrs) [µM] | IC50 [8] [µM] | EC50 (HSV2 [4]; [10]) [µM] | EC50 (HSV-1 Strain F [5]; [11]) [µM] | IC50 (VZV [7]; [12]) [µM] | EC50 (HSV-1 Strain F [2]; ~72 hrs) [µM] | IC50 (VZV [3]; ~72 hrs) [µM] | EC50 (HCMV Strain AD169; MRC5 cells, ~72 hrs) [µM] | EC50 (HSV2 [6]; ~72 hrs) [µM] | EC50 (HCMV Strain AD169; [9]) [µM] | EC50 (HSV-1 Strain F [2]; [13]) [µM] | IC50 (VZV [3]; [14]) [µM] | EC50 (HSV2 [6]; [15]) [µM] |
| --- | --- | --- | --- | --- | --- | --- | --- | --- | --- | --- | --- | --- | --- | --- | --- | --- |
| Cn1nc(C(=O)NCc2ccc(Cl)cc2)c2c1CC(C[C@@H]1CCC(=O)N1)C2 (single isomer, unassigned) [Compound 127] | 0.00972 | 0.364 | 0.24 | 0.13 | 0.0489 |  |  |  | 0.694 | 0.407 | 0.599 | 0.278 |  |  |  |  |
| Cn1nc(C(=O)NCc2ccc(Cl)cc2)c2c1CC(C[C@H]1CCC(=O)N1)C2 (single isomer, unassigned) [Compound 129] | 0.0091 | 0.422 | 0.264 | 0.154 | 0.0742 |  |  |  | 1.02 | 0.371 | 1.57 | 0.384 |  |  |  |  |
| O=C1CC[C@H](CN2Cc3c(C(=O)NCc4ccc(Cl)cc4)nn(CC4CCCO4)c3C2)N1 (stereo partly drawn) [Compound 29] | 0.0578 |  |  |  | 0.186 | 8.93 | 5.32 | 0.259 |  |  |  |  | 3.69 |  |  |  |
| CC1(Cn2nc(C(=O)NCc3ccc(Cl)cc3)c3c2CN(C[C@H]2CCC(=O)N2)C3)COC1 [Compound 30] | 0.0659 |  |  |  | 0.245 | 16.4 | 12 | 2.35 |  |  |  |  | 5.75 |  |  |  |
| O=C1CC[C@H](CN2Cc3c(C(=O)NCc4ccc(Cl)cc4)nn(CCn4ccc(Cl)n4)c3C2)N1 [Compound 36] | 0.00585 |  |  |  | 0.00894 | 2.84 | 1.19 | 0.102 |  |  |  |  | 0.453 | 1.27 | 0.856 | 0.96 |
| O=C1CC[C@H](CN2Cc3c(C(=O)NCc4ccc(Cl)cc4)nn(CCC4CCOC4)c3C2)N1 (stereo partly drawn) [Compound 38] | 0.0156 |  |  |  | 0.0346 | 5.83 | 2.58 | 0.501 |  |  |  |  | 1.24 |  |  |  |
| Cn1nc(C(=O)NCc2ccc(Cl)c(F)c2)c2c1CN(C[C@H]1CCC(=O)N1)C2 [Compound 60] | 0.112 |  |  |  | 0.143 | 5.46 | 2.85 | 1.47 |  |  |  |  | 0.97 | 8.35 | 5.96 | 5.57 |
